Bounds are passed on as bounds.

We go through three compounds from US12371414B2, “Methods of treating neurological disorders” (NEUMORA THERAPEUTICS, INC., priority 2022, dated 2025).

Experiment [1] addresses T1, CK-1δ (Homo sapiens, UniProt P48730). As to the kind of experiment: Biochemical kinase assay (HotSpot radioisotope filter binding, Reaction Biology). Particulars: read-out: Biochemical Kinase Assay CK-1d IC50. The arrangement: purchased Reaction Biology. As to the method: Biochemical inhibition of CK-1δ and kinome selectivity was assessed using a HotSpot radioisotope filter binding assay (Reaction Biology). In the HotSpot assay, compounds were incubated with the kinase, substrate, cofactors, and radioisotope-labeled ATP. The reaction mixtures are then spotted onto filter papers, which bind the radioisotope-labeled catalytic product that can be quantified.
(§1) The IC50 ranges are as follows: for NanoBRET IC50 (nM), A denotes <400 nM; B denotes 400 nM≤KD<800 nM; C denotes KD≥800 nM. For the biochemical kinase assay IC50 (nM), A denotes <50 nM; B denotes 50 nM≤IC50<100 nM; C denotes ≥100 nM.

In experiment [2] the target is T1, CK-1δ. Nature of the experiment: Cellular target engagement (NanoBRET) competition assay. Particulars: NanoLuc-tagged kinase in 293T-HEK cells, tracer displacement; read-out: NanoBRET CK-1d IC50. Type of experiment: cell-based. The arrangement: expressed in transfected cells; host or cells: 293T-HEK cells. The method, then: The cell based CK-1δ target engagement assay is a NanoBRET competition assay that directly quantifies compound binding to full length kinases in live cells (Robers M et al. Nat. Comm. No 6 (2015)). The assay utilizes a cell permeable fluorescent tracer that reversibly binds to a NanoLuc-tagged kinase expressed in 293T-HEK cells. Intracellular target engagement of an unmodified test compound was measured by competitive displacement of the tracer resulting in a loss of bioluminescence energy transfer (BRET) that was quantified on a microplate-based luminometer.
as §1

T1 sequence (P48730 whole entry): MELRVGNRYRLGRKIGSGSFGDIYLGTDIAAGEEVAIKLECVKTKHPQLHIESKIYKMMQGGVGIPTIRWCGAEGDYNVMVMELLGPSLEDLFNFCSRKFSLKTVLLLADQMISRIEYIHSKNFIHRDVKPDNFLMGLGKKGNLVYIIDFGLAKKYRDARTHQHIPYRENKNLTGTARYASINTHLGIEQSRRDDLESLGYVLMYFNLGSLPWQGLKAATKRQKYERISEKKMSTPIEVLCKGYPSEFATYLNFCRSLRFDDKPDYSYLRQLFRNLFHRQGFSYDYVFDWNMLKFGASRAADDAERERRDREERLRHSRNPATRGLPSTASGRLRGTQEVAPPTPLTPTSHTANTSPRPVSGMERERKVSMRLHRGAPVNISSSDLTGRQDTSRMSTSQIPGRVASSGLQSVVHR

Consider `CNc1nc(-c2ccncc2)c(-c2ccc(Cl)cc2)c(=O)n1C` [Compound 1, 5-(4-chlorophenyl)-3-methyl-2-(methylamino)-6-(pyridin-4-yl)pyrimidin-4(3H)-one], for which the IC50 was less than 50 nM in experiment [1] and 400 to 800 nM in experiment [2].
Regarding `CC(C)Cc1nc(-c2ccncc2)c(-c2ccc(Cl)cc2)c(=O)[nH]1` [Compound 2, 5-(4-chlorophenyl)-2-isobutyl-6-(pyridin-4-yl)pyrimidin-4(3H)-one], the half-maximal inhibitory concentration (IC50) in experiment [1] is less than 50 nM; in experiment [2] it was less than 400 nM.
For the compound `Cc1cc(-c2nc(CC(C)C)[nH]c(=O)c2-c2ccc(Cl)cc2F)ccn1` [Compound 3, 5-(4-chloro-2-fluorophenyl)-2-isobutyl-6-(2-methylpyridin-4-yl)pyrimidin-4(3H)-one], the values for the IC50 in experiment [1] and in experiment [2] were 50 to 100 nM and less than 400 nM, respectively.

Broadly, the IC50 is the concentration that inhibits the measured activity by half.
